Our source for the IC50 and Ki values is patent publication US9079866B2, “Flap modulators” (JANSSEN PHARMACEUTICA NV, priority 2013, dated 2015).

Assay [1] concerns leukotriene pathway in human whole blood (LTB4 levels). Nature of the assay: Human whole blood assay (A23187-stimulated LTB4). In kind it is cell-based. As to conditions: Homo sapiens, human whole blood diluted 1:1, A23187-stimulated; read-out: LTB4 IC50 1:1. Put shortly: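 Single-replicate data from at least one healthy donor: compound pre-incubated 15 min at 37° Celsius in 1:1 RPMI-diluted heparinised blood, followed by 30 min calcium ionophore A23187 (7 μg/mL) challenge at 37° Celsius. LTB4 in plasma quantified by kit; IC50 via 4-parameter equation.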

Assay [2] has as its target human FLAP (Homo sapiens (Human), UniProt P20292). Nature of the assay: FLAP binding assay (HTRF format). As to conditions: wild type FLAP, HTRF format. The method, boiled down: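 Reported data take the mean of two different plates carrying duplicate samples and use the HTRF ratio as the measured signal.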
On the technique in general: Time-resolved FRET reads energy transfer from a long-lived donor to a nearby acceptor.

human FLAP, sequence (P20292 whole entry): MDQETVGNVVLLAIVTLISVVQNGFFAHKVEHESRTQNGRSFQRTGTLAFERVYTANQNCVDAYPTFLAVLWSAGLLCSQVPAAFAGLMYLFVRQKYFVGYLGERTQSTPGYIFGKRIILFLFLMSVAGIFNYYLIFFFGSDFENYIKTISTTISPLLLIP

In the case of `N#Cc1nc(N)cnc1-c1ccc(-c2ccccc2S(=O)(=O)NCCO)cc1F` [Example 706, 4′-(5-Amino-3-cyanopyrazin-2-yl)-3′-fluoro-N-(2-hydroxyethyl)biphenyl-2-sulfonamide], the IC50 in assay [1] was 362 nM. This molecule also gave an inhibition constant (Ki) in assay [2] of 79.6 nM.
Taken in the same sequence, the figures for `C[C@H](O)CNS(=O)(=O)c1ccccc1-c1ccc(-c2ncc(N)nc2C#N)c(F)c1` [Example 707, 4′-(5-Amino-3-cyanopyrazin-2-yl)-3′-fluoro-N-[(2S)-2-hydroxypropyl]biphenyl-2-sulfonamide] were 127 nM and 32.7 nM.
For the molecule `C[C@@H](O)CNS(=O)(=O)c1ccccc1-c1ccc(-c2ncc(N)nc2C#N)c(F)c1` [Example 708, 4′-(5-Amino-3-cyanopyrazin-2-yl)-3′-fluoro-N-[(2R)-2-hydroxypropyl]biphenyl-2-sulfonamide], the IC50 in assay [1] was found to be 142 nM. The affinity in assay [2], expressed as Ki, was 23.5 nM.
`NC(=O)C1CCN(S(=O)(=O)c2ccccc2-c2ccc(-c3cnc(N)nc3)c(F)c2)CC1` [Example 709, 1-((4′-(2-Aminopyrimidin-5-yl)-3′-fluoro-[1,1′-biphenyl]-2-yl)sulfonyl)piperidine-4-carboxamide]: in assay [1], the IC50 stood at 268 nM. This molecule returned an inhibition constant Ki in assay [2] of 5.4 nM.
As for `C[C@H](CO)NS(=O)(=O)c1ccccc1-c1ccc(-c2ncc(N)nc2C#N)c(F)c1` [Example 710, 4′-(5-Amino-3-cyanopyrazin-2-yl)-3′-fluoro-N-[(1R)-2-hydroxy-1-methylethyl]biphenyl-2-sulfonamide], the half-maximal inhibitory concentration (IC50) in assay [1] was determined as 56.5 nM. This molecule also displayed a Ki in assay [2] of 13.7 nM.
Take `C[C@@H](CO)NS(=O)(=O)c1ccccc1-c1ccc(-c2ncc(N)nc2C#N)c(F)c1` [Example 711, 4′-(5-Amino-3-cyanopyrazin-2-yl)-3′-fluoro-N-[(1S)-2-hydroxy-1-methylethyl]biphenyl-2-sulfonamide]: the IC50 in assay [1] is 142 nM. Moreover, the affinity in assay [2], expressed as Ki, was 41.7 nM.
As to `N#Cc1nc(N)cnc1-c1ccc(-c2ccc(C(F)(F)F)cc2S(=O)(=O)NCCO)cc1F` [Example 712, 4′-(5-Amino-3-cyanopyrazin-2-yl)-3′-fluoro-N-(2-hydroxyethyl)-4-(trifluoromethyl)biphenyl-2-sulfonamide], in assay [1], the IC50 is 52.3 nM. In assay [2], this molecule returned a Ki of 1.9 nM.
The matching figures for `CCNS(=O)(=O)c1cc(C(F)(F)F)ccc1-c1ccc(-c2ncc(N)nc2C#N)c(F)c1` [Example 713, 4′-(5-Amino-3-cyanopyrazin-2-yl)-N-ethyl-3′-fluoro-4-(trifluoromethyl)-[1,1′-biphenyl]-2-sulfonamide]: 53.4 nM and 1.7 nM.
For the molecule `CC(C)(CO)CNS(=O)(=O)c1ccccc1-c1ccc(-c2ncc(N)nc2C#N)c(F)c1` [Example 714, 4′-(5-Amino-3-cyanopyrazin-2-yl)-3′-fluoro-N-(3-hydroxy-2,2-dimethylpropyl)biphenyl-2-sulfonamide], the IC50 in assay [1] was 33.1 nM. This molecule also gave an inhibitory constant (Ki) in assay [2] of 2.4 nM.
On to `Nc1cnc(-c2ccc(-c3ccccc3S(=O)(=O)c3nccc(N)n3)cc2F)cn1` [Example 727, 2-{[4′-(5-Aminopyrazin-2-yl)-3′-fluorobiphenyl-2-yl]sulfonyl}pyrimidin-4-amine], for which, in assay [1], the half-inhibitory concentration (IC50) was 1170 nM. In assay [2], this molecule returned a Ki of 484 nM.
In the case of `N#Cc1nc(N)cnc1-c1ccc(-c2ccccc2S(=O)(=O)C2CC2)cc1F` [Example 729, 6-Amino-3-[2′-(cyclopropylsulfonyl)-3-fluorobiphenyl-4-yl]pyrazine-2-carbonitrile], the IC50 in assay [1] came out at 861 nM. Further, the Ki in assay [2] came to 64.7 nM.
Taken in the same sequence, the figures for `N#CC1(S(=O)(=O)c2ccccc2-c2ccc(-c3cnc(N)cn3)c(F)c2)CCCC1` [Example 730, 1-{[4′-(5-Aminopyrazin-2-yl)-3′-fluorobiphenyl-2-yl]sulfonyl}cyclopentanecarbonitrile] were 136 nM and 6.7 nM.

As a reminder, the IC50 is the point on the concentration scale where inhibition reaches its midpoint. What is called Ki is the equilibrium dissociation constant of an inhibitor or competing ligand from its target.
